Measurements: US20250032454A1, “KDM1A INHIBITORS FOR THE TREATMENT OF DISEASE” (Imago Biosciences, Inc., priority 2021, published 2025)
Where two headings read alike, the source gives them in different places.

Key:
LSD1 = LSD1 (Homo sapiens, UniProt O60341); experiment: LSD1 fluorescence coupling enzyme assay (HRP/Amplex Red, H3(1-21)K4me2 peptide), 10-dose IC50; assay type: biochemical; conditions: 10 μM histone H3(1-21)K4me2 peptide substrate, 3-fold serial dilution from 100 μM
Description: Assaying the inhibition of KDM1A can be determined in vitro, in cultured cells, and in animals. There are a variety of spectrophotometric methods to detect the results of demethylation of methylated lysines, viz., detecting the products of KDM1A demethylase oxidative activity on a peptide fragment of at least 18 amino acids representing the N-terminus of the histone H3 substrate that contains a monomethyl at the fourth lysine residue. Hydrogen peroxide, one product of the KDM1A demethylase reaction, reacts with horseradish peroxidase and dihydroxyphenoxazine (ADHP) to produce the fluorescent compound resorufin (excitation=530-560 nm: emission=590 nm). The KDM1A demethylase enzyme activity can be obtained from mammalian cells or tissues expressing KDM1A from an endogenous or recombinant gene and purified or assayed from a whole cell extract. These methods can be used to determine the concentration of the disclosed compounds can inhibit fifty percent of the enzyme activity (IC50).
Alternatively, the production of H2O2 during the KDM1A reaction can be detected fluometrically. In this system, the production of H2O2 is detected in the HDM assay buffer after exposure to substrate, co-factor and enzyme using ADHP (10-Acetyl-3, 7-dihydroxyphenoxazine) as a fluorogenic substrate for horse radish peroxidase (HRP). […] The florescent product is resorufin. Sensitivity can be as low as 10-15 M of target protein. The signal is read using a fluorescence microplate reader at excitation and emission wavelengths of 530-560 nm and 590 nm, respectively.
Compounds were tested in a 10-dose IC50 mode fluorescence coupling enzyme assay with 3-fold serial dilution in duplicate starting at 100 μM. The production of FAD-dependent H2O2 as a result of demethylase activity of LSD1 on 10 μM histone H3(1-21)K4me2 peptide substrate was measured by coupling with HRP and Amplex Red to yield resorufin (fluorescence measured at Ex/Em=535/590 nm on EnVision, Perkin Elmer).

MV4;11 cells = experiment: Cell Titer-Glo cell growth inhibition in MV4;11 cell line (Day 5 / Day 10); assay type: cell-based; conditions: Homo sapiens
Protocol: Cell growth inhibition against MV4;11 cells was confirmed for the synthetic compounds. The Cell Titer-Glo Luminescent Cell Viability Assay (Promega, USA) was used to determine the number of viable cells in culture based on quantitation of the ATP present, which signals the presence of metabolically active cells. This assay was run in a 96-well plate format arrayed in a 10-point dose curve, ranging from 0 to 50 µM with 4-fold dilutions for each compound. Cells are seeded on Day 0 at 3750 cells per well. At Day 5, a portion of each well is assayed for viability according to the Cell Titer-Glo protocol. Briefly, cells/plates were centrifuged at 1100×g for 5 minutes. 100 μL of media was removed from each well and replaced with 100 μL of CellTiter-Glo. The plates were shaken at room temperature for 10 minutes and measured on a luminescence plate reader. Another portion of each well from the Day 5 plate is used to seed a new 96 plate containing fresh compound and media set up in the equivalent 10-point dose curve array in order to continue the cell growth inhibition assay for another 5 days. A final timepoint is collected at Day 10 using the Cell Titer-Glo protocol. Luminescence was detected on an En Vision® Multilabel Plate Reader (Perkin Elmer, Waltham, Mass.) and IC50 determination was made using Graph Pad Prism software.

SMILES | IC50 (LSD1) | IC50 (MV4;11 cells; MV4-11, 120 h, Day 5, read-out: Cell Titer-Glo IC50 (5 d)) | IC50 (MV4;11 cells; MV4-11, 240 h, Day 10, read-out: Cell Titer-Glo IC50 (10 d))
COc1ccc(-n2nc(NC[C@@H]3CCCNC3)cc2-c2ccc(C#N)c(F)c2)cc1 [Example 3R, (R)-2-fluoro-4-(1-(4-methoxyphenyl)-3-((piperidin-3-ylmethyl)amino)-1H-pyrazol-5-yl)benzonitrile] | < 500 nM | – | –
COc1ccc(-n2nc(NC[C@H]3CCCNC3)cc2-c2ccc(C#N)c(F)c2)cc1 [Example 3S, (S)-2-fluoro-4-(1-(4-methoxyphenyl)-3-((piperidin-3-ylmethyl)amino)-1H-pyrazol-5-yl)benzonitrile] | < 500 nM | – | –
N#Cc1ccc(-c2cc(NCC3CCC[C@H](N)C3)nn2-c2ccc3nn(-c4ccncc4)cc3c2)cc1F (stereo partly drawn) [Example 75, 4-(3-((((15,3S)-3-aminocyclohexyl)methyl)amino)-1-(2-(pyridin-4-yl)-2H-indazol-5-yl)-1H-pyrazol-5-yl)-2-fluorobenzonitrile] | – | 500 to 1000 nM | < 500 nM
COc1ccc(-n2nc(NC[C@@H]3CCC[C@H](CN)C3)cc2-c2ccc(C#N)c(F)c2)cc1 [Example 79, 4-(3-((((1R,3S)-3-(aminomethyl)cyclohexyl)methyl)amino)-1-(4-methoxyphenyl)-1H-pyrazol-5-yl)-2-fluorobenzonitrile] | 1000 to 10000 nM | – | –
COc1ccc(-n2nc(NC[C@H]3CCC[C@H](CN)C3)cc2-c2ccc(C#N)c(F)c2)cc1 [Example 80, 4-(3-((((15,3S)-3-(aminomethyl)cyclohexyl)methyl)amino)-1-(4-methoxyphenyl)-1H-pyrazol-5-yl)-2-fluorobenzonitrile] | 500 to 1000 nM | – | –
N#Cc1ccc(-c2cc(NC[C@H]3CCC[C@H](N)C3)nn2-c2ccc(N3CCC(O)CC3)cc2)cc1F [Example 89, 4-(3-((((1S,3S)-3-aminocyclohexyl)methyl)amino)-1-(4-(4-hydroxypiperidin-1-yl)phenyl)-1H-pyrazol-5-yl)-2-fluorobenzonitrile] | < 500 nM | – | –

Second part, the compound after the results:

IC50 (LSD1) | IC50 (MV4;11 cells; MV4-11, 120 h, Day 5, read-out: Cell Titer-Glo IC50 (5 d)) | IC50 (MV4;11 cells; MV4-11, 240 h, Day 10, read-out: Cell Titer-Glo IC50 (10 d)) | SMILES
< 500 nM | – | – | N#Cc1ccc(-c2cc(NCC3CCCNCC3)nn2-c2ccc(N3CC[S+]([O-])CC3)cc2)cc1F (stereo not shown) [Example 90, 4-(3-((Azepan-4-ylmethyl)amino)-1-(4-(1-oxidothiomorpholino)phenyl)-1H-pyrazol-5-yl)-2-fluorobenzonitrile 2,2,2-trifluoroacetate]
< 500 nM | – | – | N#Cc1ccc(-c2cc(NC[C@@H]3CCCNCC3)nn2-c2ccc(N3CC[S+]([O-])CC3)cc2)cc1F [Example 91, (R)-4-(3-((azepan-4-ylmethyl)amino)-1-(4-(1-oxidothiomorpholino)phenyl)-1H-pyrazol-5-yl)-2-fluorobenzonitrile 2,2,2-trifluoroacetate]
< 500 nM | – | – | COC1CCN(c2ccc(-n3nc(NC[C@H]4CCC[C@H](N)C4)cc3-c3ccc(C#N)c(F)c3)c(F)c2)CC1 [Example 92, 4-(3-((((1S,3S)-3-aminocyclohexyl)methyl)amino)-1-(2-fluoro-4-(4-methoxypiperidin-1-yl)phenyl)-1H-pyrazol-5-yl)-2-fluorobenzonitrile 2,2,2-trifluoroacetate]
< 500 nM | – | – | CN(c1ccc(-n2nc(NC[C@H]3CCC[C@H](N)C3)cc2-c2ccc(C#N)c(F)c2)cc1)C1CCOCC1 [Example 93, 4-(3-((((1S,3S)-3-aminocyclohexyl)methyl)amino)-1-(4-(methyl(tetrahydro-2H-pyran-4-yl)amino)phenyl)-1H-pyrazol-5-yl)-2-fluorobenzonitrile 2,2,2-trifluoroacetate]
< 500 nM | – | – | CC(C)OC1CCN(c2ccc(-n3nc(NC[C@H]4CCC[C@H](N)C4)cc3-c3ccc(C#N)c(F)c3)cc2)CC1 [Example 94, 4-(3-((((1S,3S)-3-aminocyclohexyl)methyl)amino)-1-(4-(4-isopropoxypiperidin-1-yl)phenyl)-1H-pyrazol-5-yl)-2-fluorobenzonitrile 2,2,2-trifluoroacetate]
< 500 nM | – | – | N#Cc1ccc(-c2cc(NC[C@H]3CCC[C@H](N)C3)nn2-c2ccc(N3CCC4(CCCO4)CC3)cc2)cc1F [Example 95, 4-(1-(4-(1-Oxa-8-azaspiro[4.5]decan-8-yl)phenyl)-3-((((1S,3S)-3-aminocyclohexyl)methyl)amino)-1H-pyrazol-5-yl)-2-fluorobenzonitrile 2,2,2-trifluoroacetate]
